IC50 data for three compounds are collected here from ChEMBL document CHEMBL1157975, “Diterpenoids from the roots of Euphorbia fischeriana” (J Nat Prod, 2006).

Each structure is given as a SMILES string. ≈ marks a conversion by molar mass, not a printed value.

The test system of this assay is Ramos. Kind of assay: Cytotoxicity against human Ramos B cells after 72 hrs by MTT assay. In kind it is functional, cell-based. A general note: Formazan colour is commonly taken as a measure of viable cells.
The term IC50 denotes the midpoint of a concentration-inhibition curve. Low readings indicate inhibition by little substance, high ones a need for much substance. In turn, `CCCCCCCCCC(=O)O[C@@]12C[C@@H](C)[C@]3(O)[C@@H](C=C(CO)C[C@@]4(O)C(=O)C(C)=C[C@@H]34)[C@@H]1C2(C)C` yielded an IC50 of 0.0051 µg/mL (≈ 0.0101 µM).

Take `CC(=O)OCC1=C2[C@H]3O[C@]34CC[C@@H]3C(C)(C)CCC[C@@]3(C)[C@@H]4[C@H]3O[C@@]23OC1=O` [17-ACETOXYJOLKINOLIDE B]: the IC50 stood at 0.023 µg/mL (≈ 0.0592 µM).

The compound `CC(=O)O[C@@]12C[C@@H](C)[C@@]3(O)[C@@H](C=C(CO)C[C@]4(O)C(=O)C(C)=C[C@@H]34)[C@@H]1C2(C)C` [PROSTRATIN] yielded an IC50 of 0.056 µg/mL (≈ 0.143 µM).
